Laboratory results: patent US12152035B2, “Androgen receptor binding molecule and use thereof” (Industrial Technology Research Institute, priority 2020, dated 2024)

What was measured:
Assay type in all cases: cell-based
VCaP cells = experiment: Cytotoxicity assay (AlamarBlue, 72 hours); conditions: 72 hours treatment, concentration not given
Description: (§1) Compound stock solutions of 10 mM were prepared with 100% DMSO and shaken for 10-15 seconds. The compound stock solutions were centrifuged at 12000 rpm (13523 rcf.) for 5 minutes and record the turbidity or precipitation state with a photo snapshot. The compound stock solutions were resuspended by shaking for 10-15 seconds, and serially diluted with 100% DMSO solution to make the compound concentration to 1000 μM, then to 100, 10, and 1 μM, and then 10-fold diluted with medium to 100, 10, 1, 0.1 μM (final 10% DMSO/medium) to complete compound test sample preparation. Compound treatment was performed by adding 10 μL of compound test sample to cells in each well of a 96-well plate (final 1% DMSO/medium).
(§2) Cells (CWR22Rv1 cells or VCaP cells) were cultured in RPMI-1640 medium supplemented with 10% fetal bovine serum, 10,000 U/mL penicillin and 10,000 μg/mL streptomycin. Cells were cultured at 37° C. in a humidified 5% CO2 incubator.
(§3) Cells were seeded in a 96-well plate (1×10^4 cells/well). 10 μL of the above compound test sample was added to each well of the 96-well plate on next day. After 72 hours of compound treatment, 10 μL of AlamaBlue reagent was added to each of 96 wells and incubated for 4 hours. The fluorescence value at Ex/Em=560/590 nm was read with a microplate reader, and the cytotoxicity (%) was calculated.
(§4) According to the above method, the compounds prepared above were subjected to cytotoxicity test with CWR22RV1 cells and VCaP cells.

CWR22RV1 cells = experiment: Cytotoxicity assay (AlamarBlue, 72 hours); conditions: 72 hours treatment, concentration not given
Description: as §1, §2, §3, §4

[1] = test system: full-length androgen receptor; experiment: Western blot: degradation of full-length androgen receptor in CWR22RV1 cells; conditions: overnight
Description: CWR22Rv1 cells were maintained in RPMI medium supplemented with 10% fetal bovine serum and 1% penicillin-streptomycin at 37° C. in a humidified environment with 5% CO2.
CWR22Rv1 (5×10^5 cells) were seeded in each well of a 6-well plate and incubated overnight. Before compound treatment, the medium in the wells was replaced with a new medium. Cells were treated with different concentrations of compound overnight. Subsequently, cells were harvested by adding cold PBS and scraping cells. Cells were lysed according to general procedures and Western blot assays were performed to assess the ability of compounds to degrade full-length androgen receptor or androgen receptor splice variant 7. The cells or cell lysates were kept on ice at all times.
The following reagents were used in this experiment. Phosphate buffered saline (PBS) (Hyclone, SH30028.02), fetal bovine serum (Hyclone, SH30084.23, Lot AC14563276), penicillin-streptomycin solution (Hyclone, SV30010), 0.5% Trypsin-EDTA (Gibco, 15400-054), CST Lysis Buffer (CST-9803), Halt™ Protease and Phosphatase Inhibitor (ThermoFisher, 78442), Coomassie (Bradford) Protein Assay (Coomassie (Bradford) protein assay) (ThermoFisher, 23200), androgen receptor antibody (Cell Siginaling, CST-5153S), GAPDH antibody (Cell Siginaling, CST-5174S), HRP-goat-anti-rabbit (Jackson Immuno Research, 111-035-003), skim milk, SuperSignal West Pico Maximum Sensitivity substrate (ThermoFisher, 34080).
The compound prepared above was analyzed for its ability to degrade full-length androgen receptor and androgen receptor splice variant 7 in CWR22RV1 cells by Western blotting according to the method shown in item B.3-2 above.

[2] = compound concentration 0.1 (unit not given)
[3] = compound concentration 1 (unit not given)
[4] = compound concentration 10 (unit not given)

SMILES | Cytotoxicity, VCaP cells (cell viability %) (VCaP cells) | Cytotoxicity, CWR22RV1 cells (cell viability %) (CWR22RV1 cells) | Degradation ability for full-length androgen receptor (residual rate %) [1, 2] | Degradation ability for full-length androgen receptor (residual rate %) [1, 3] | Degradation ability for full-length androgen receptor (residual rate %) [1, 4]
Cc1ncsc1-c1ccc(CNC(=O)[C@H]2C[C@@H](O)CN2C(=O)[C@@H](NC(=O)C2(F)CC2)C(C)(C)C)c(OCCCCCCCOc2ccc(C3CCN(C4=Nn5c(nnc5C(F)(F)F)CC4)CC3)cc2)c1 [Compound 36, (2R,4R)-1-((S)-2-(1-fluorocyclopropane-1-carboxamido)-3,3-dimethylbutanoyl)-4-hydroxy-N-(4-(4-methylthiazol-5-yl)-2-((7-(4-(1-(3-(trifluoromethyl)-7,8-dihydro-[1,2,4]triazolo[4,3-b]pyridazin-6-yl)piperidin-4-yl)phenoxy)heptyl)oxy)benzyl)pyrrolidine-2-carboxamide] | +++ (<40% : +++) | +++ (<40% : +++) | − (>80%; −) | + (60-80%: +) | + (60-80%: +)
Cc1ncsc1-c1ccc(CNC(=O)[C@@H]2C[C@H](O)CN2C(=O)[C@@H](NC(=O)COCCCCOc2ccc(C3CCN(c4ccc5nnc(C(F)(F)F)n5n4)CC3)cc2)C(C)(C)C)cc1 [Compound 37, (2S,4S)-1-((S)-3,3-dimethyl-2-(2-(4-(4-(1-(3-(trifluoromethyl)-[1,2,4]triazolo[4,3-b]pyridazin-6-yl)piperidin-4-yl)phenoxy)butoxy)acetamido)butanoyl)-4-hydroxy-N-(4-(4-methylthiazol-5-yl)benzyl)pyrrolidine-2-carboxamide] | +++ (<40% : +++) | +++ (<40% : +++) | − (>80%; −) | + (60-80%: +) | +++ (<40%: +++)
O=C1CCC(N2Cc3c(NC(=O)COCCCCOc4ccc(C5CCN(c6ccc7nnc(C(F)(F)F)n7n6)CC5)cc4)cccc3C2=O)C(=O)N1 (centres unmarked) [Compound 38, N-(2-(2,6-dioxopiperidin-3-yl)-1-oxoisoindolin-4-yl)-2-(4-(4-(1-(3-(trifluoromethyl)-[1,2,4]triazolo[4,3-b]pyridazin-6-yl)piperidin-4-yl)phenoxy)butoxy)acetamide] | +++ (<40% : +++) | +++ (<40% : +++) | ++ (40-60%: ++) | +++ (<40%: +++) | +++ (<40%: +++)
O=C1CCC(N2Cc3c(NC(=O)CCCCCCOc4ccc(C5CCN(C6=Nn7c(nnc7C(F)(F)F)CC6)CC5)cc4)cccc3C2=O)C(=O)N1 (centres unmarked) [Compound 39, N-(2-(2,6-dioxopiperidin-3-yl)-1-oxoisoindolin-4-yl)-7-(4-(1-(3-(trifluoromethyl)-7,8-dihydro-[1,2,4]triazolo[4,3-b]pyridazin-6-yl)piperidin-4-yl)phenoxy)heptanamide] | +++ (<40% : +++) | +++ (<40% : +++) | − (>80%; −) | + (60-80%: +) | ++ (40-60%: ++)
O=C1CCC(N2Cc3cc(C4=CCN(C(=O)COCCCCOc5ccc(C6CCN(C7=Nn8c(nnc8C(F)(F)F)CC7)CC6)cc5)CC4)ccc3C2=O)C(=O)N1 (centres unmarked) [Compound 40, 3-(1-oxo-5-(1-(2-(4-(4-(1-(3-(trifluoromethyl)-7,8-dihydro-[1,2,4]triazolo[4,3-b]pyridazin-6-yl)piperidin-4-yl)phenoxy)butoxy)acetyl)-1,2,3,6-tetrahydropyridin-4-yl)isoindolin-2-yl)piperidine-2,6-dione] | ++ (40-60% : ++) | ++ (40-60% : ++) | + (60-80%: +) | + (60-80%: +) | +++ (<40%: +++)
O=C1CCC(N2Cc3cc(C4CCN(C(=O)COCCCCOc5ccc(C6CCN(C7=Nn8c(nnc8C(F)(F)F)CC7)CC6)cc5)CC4)ccc3C2=O)C(=O)N1 (centres unmarked) [Compound 41, 3-(1-oxo-5-(1-(2-(4-(4-(1-(3-(trifluoromethyl)-7,8-dihydro-[1,2,4]triazolo[4,3-b]pyridazin-6-yl)piperidin-4-yl)phenoxy)butoxy)acetyl)piperidin-4-yl)isoindolin-2-yl)piperidine-2,6-dione] | +++ (<40% : +++) | ++ (40-60% : ++) | − (>80%; −) | + (60-80%: +) | +++ (<40%: +++)
O=C1CCC(N2Cc3cc(C#CCOCCCCOc4ccc(C5CCN(C6=Nn7c(nnc7C(F)(F)F)CC6)CC5)cc4)ccc3C2=O)C(=O)N1 (centres unmarked) [Compound 42] | + (60-80% : +) | + (60-80% : +) | − (>80%; −) | − (>80%; −) | + (60-80%: +)
O=C1CCC(N2C(=O)c3cccc(NCC(=O)N4CCC(N5CCC(C#Cc6ccc(C7CCN(C8=Nn9c(nnc9C(F)(F)F)CC8)CC7)cc6)CC5)CC4)c3C2=O)C(=O)N1 (centres unmarked) [Compound 43, 2-(2,6-dioxopiperidin-3-yl)-4-((2-oxo-2-(4-((4-(1-(3-(trifluoromethyl)-7,8-dihydro-[1,2,4]triazolo[4,3-b]pyridazin-6-yl)piperidin-4-yl)phenyl)ethynyl)-[1,4′-bipiperidin]-1′-yl)ethyl)amino)isoindoline-1,3-dione] | +++ (<40% : +++) | +++ (<40% : +++) | ++ (40-60%: ++) | ++ (40-60%: ++) | ++ (40-60%: ++)
O=C1CCC(N2C(=O)c3cccc(N4CCC(N5CCC(C#Cc6ccc(C7CCN(C8=Nn9c(nnc9C(F)(F)F)CC8)CC7)cc6)CC5)CC4)c3C2=O)C(=O)N1 (centres unmarked) [Compound 44, 2-(2,6-dioxopiperidin-3-yl)-4-(4-((4-(1-(3-(trifluoromethyl)-7,8-dihydro-[1,2,4]triazolo[4,3-b]pyridazin-6-yl)piperidin-4-yl)phenyl)ethynyl)-[1,4′-bipiperidin]-1′-yl)isoindoline-1,3-dione] | +++ (<40% : +++) | +++ (<40% : +++) | − (>80%; −) | − (>80%; −) | ++ (40-60%: ++)
O=C1CCC(N2C(=O)c3cccc(N4CCN(C(=O)COCCCCOc5ccc(C6CCN(C7=Nn8c(nnc8C(F)(F)F)CC7)CC6)cc5)CC4)c3C2=O)C(=O)N1 (centres unmarked) [Compound 45, 2-(2,6-dioxopiperidin-3-yl)-4-(4-(2-(4-(4-(1-(3-(trifluoromethyl)-7,8-dihydro-[1,2,4]triazolo[4,3-b]pyridazin-6-yl)piperidin-4-yl)phenoxy)butoxy)acetyl)piperazin-1-yl)isoindoline-1,3-dione] | +++ (<40% : +++) | + (60-80% : +) | − (>80%; −) | ++ (40-60%: ++) | ++ (40-60%: ++)
